Patent EP0581652A1, “Pradimicins T1 and T2 and 11-0-dexylosylpradimicin T1, new members of the pradimicin family of antibiotics” (priority 1992, dated 1994)

Assays:
[1] = test system: Aspergillus fumigatus IAM 2034; experiment: In vitro antifungal activity, agar dilution method (MIC); format: cell-based; conditions: yeast morphology agar + 1/15M phosphate buffer (pH 7.0), 10^6 cells/ml, 28°C, 40 hrs
[2] = test system: Trichophyton mentagrophytes 4329; experiment: as above; format: cell-based; conditions: yeast morphology agar + 1/15M phosphate buffer (pH 7.0), 10^7 cells/ml, 28°C, 60 hrs
[3] = Acute toxicity in mice after a single intravenous dose; format: in vivo
Protocol: (§1) Pradimicins T1 and T2 were evaluated for in vivo efficacy against a Candida albicans A9540 systemic infection in male ICR mice (20-24 g body weight) as described by Oki etal. in water-soluble pradimicin derivatives, synthesis and antifungal evaluation of N,N,-dimethyl pradimicins, J. Antibiotics 43: 1230-1235, 1990. Five mice at each dose level were challenged intravenously with ten times the 50% lethal dose of the pathogen suspended in saline. Antibiotics were intravenously administered once immediately after the fungal challenge. Infection control animals (n=10) died from 7 to 12 days. The 50% protective dose (PD50) was calculated from the survival rate 20 days after the fungal infection. The acute toxicity of pradimicins T1 and T2 was determined in mice after a single intravenous dose.

[4] = test system: Saccharomyces cerevisiae ATCC 9763; experiment: In vitro antifungal activity, agar dilution method (MIC); format: cell-based; conditions: yeast morphology agar + 1/15M phosphate buffer (pH 7.0), 10^6 cells/ml, 28°C, 40 hrs
[5] = test system: Candida albicans A9540; experiment: In vivo efficacy against systemic infection in mice; conditions: male ICR mice; C. albicans A9540 systemic infection; single intravenous dose immediately after challenge; survival rate 20 days after infection
Protocol: as §1

[6] = test system: Candida albicans A9540; experiment: In vitro antifungal activity, agar dilution method (MIC); format: cell-based; conditions: yeast morphology agar + 1/15M phosphate buffer (pH 7.0), 10^6 cells/ml, 28°C, 40 hrs
[7] = test system: Cryptococcus neoformans D49; experiment: as above; format: cell-based; conditions: yeast morphology agar + 1/15M phosphate buffer (pH 7.0), 10^6 cells/ml, 28°C, 40 hrs
[8] = test system: Candida albicans 83-2-14 (Juntendo); experiment: as above; format: cell-based; conditions: yeast morphology agar + 1/15M phosphate buffer (pH 7.0), 10^6 cells/ml, 28°C, 40 hrs
[9] = test system: Cryptococcus neoformans IAM 4514; experiment: as above; format: cell-based; conditions: yeast morphology agar + 1/15M phosphate buffer (pH 7.0), 10^6 cells/ml, 28°C, 40 hrs
[10] = test system: Candida albicans ATCC 32354 (B311); experiment: as above; format: cell-based; conditions: yeast morphology agar + 1/15M phosphate buffer (pH 7.0), 10^6 cells/ml, 28°C, 40 hrs

Substance | MIC [1] | MIC [2] | LD50 [3] | MIC [4] | PD50 [5] | MIC [6] | MIC [7] | MIC [8] | MIC [9] | MIC [10]
11-O-dexylosylpradimicin T1 [11-O-Dexylosyl-pradimicin T1] | 25 μ g/ml | 12.5 μ g/ml | – | – | – | – | – | – | – | –
Pradimicin T2 | >100 μ g/ml | 50 μ g/ml | – | – | – | – | – | – | – | –
Amphotericin B | 0.8 μ g/ml | 0.8 μ g/ml | 4.5 mg/kg | 0.4 µg/mL | 0.2 mg/kg | 0.4 µg/mL | 0.4 µg/mL | 0.4 µg/mL | 0.4 µg/mL | 0.4 µg/mL
Pradimicin T1 | 6.3 μ g/ml | 6.3 μ g/ml | – | – | – | – | – | – | – | –
